Data as given in patent publication US20230257355A1, “HYDROXAMIC ACID-CONTAINING COMPOUND, AND PREPARATION METHOD AND USE THEREOF” (CHINA PHARMACEUTICAL UNIVERSITY, priority 2020, published 2023).

Legend:
[1] = target: T1, ASM (Homo sapiens, UniProt P17405); test: Inhibition of compounds on ASM activity (cell protein extract, fluorescently-labeled substrate); type: biochemical; details: for IC50: protein extracted from cultivated cells, fluorescently-labeled substrate
T1 construct: A protein in cultivated cells was extracted, a buffer and a fluorescently-labeled reaction substrate were added; endogenous in cells
T1 sequence (P17405 47-631): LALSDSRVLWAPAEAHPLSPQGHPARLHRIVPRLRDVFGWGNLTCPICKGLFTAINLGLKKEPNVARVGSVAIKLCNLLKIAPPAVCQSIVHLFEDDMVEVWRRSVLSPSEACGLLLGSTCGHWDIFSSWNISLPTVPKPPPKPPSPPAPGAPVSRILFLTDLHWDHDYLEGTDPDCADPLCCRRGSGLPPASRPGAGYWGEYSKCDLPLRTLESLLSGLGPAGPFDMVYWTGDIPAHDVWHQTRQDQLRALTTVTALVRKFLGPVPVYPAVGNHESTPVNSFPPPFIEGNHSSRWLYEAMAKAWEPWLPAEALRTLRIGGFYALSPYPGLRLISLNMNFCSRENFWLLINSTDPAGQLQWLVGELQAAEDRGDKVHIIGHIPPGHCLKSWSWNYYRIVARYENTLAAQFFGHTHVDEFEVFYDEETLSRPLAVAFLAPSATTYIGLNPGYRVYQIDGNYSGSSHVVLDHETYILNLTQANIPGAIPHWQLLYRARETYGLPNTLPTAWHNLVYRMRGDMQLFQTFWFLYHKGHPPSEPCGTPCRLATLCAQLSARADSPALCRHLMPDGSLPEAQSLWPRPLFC
Method: ASM can hydrolyze sphingomyelin to produce ceramides in cells. For a specified amount of a fluorescently-labeled reaction substrate (Avanti Corporation, USA), different ASM activities catalyze the generation of a product at different amounts. Thus, an ASM activity level can be investigated by detecting a product content. The experiment design of the present disclosure is carried out according to the above principle.
A blank control group was set. After the reaction was completed, fluorescence analysis was performed, and finally an IC50 value of the compound was calculated.
A blank control group was set. After the reaction was completed, fluorescence analysis was performed.

[2] = system: chronic depression rat model established by reserpine; test: Open field test (OFT) in reserpine chronic depression rat model; type: in vivo; details: rats
Method: (§1) In the present disclosure, a chronic depression rat model was established by reserpine (reference: NeurotoxRes, 2014, doi: 10.1007/s12640-013-9454-8). Specific experimental steps were as follows: In a normal group, 8 rats were randomly selected and raised normally. Rats in the remaining groups each were injected intraperitoneally with reserpine at 0.2 mg/kg once every day for three days. Rats in the remaining groups each were intraperitoneally injected with the compound I-1 at different doses (3 mg/kg, 6 mg/kg, and 12 mg/kg), a positive drug amitriptyline (6 mg/kg), or no drug. Two weeks after the administration, the OFT was performed (reference: China Pharmacy, 2016, 27 (19): 2697-2699), and after the OFT was completed, the SPT was performed.

[3] = system: chronic depression rat model established by reserpine; test: Sucrose preference test (SPT) in reserpine chronic depression rat model; type: in vivo; details: rats
Method: as §1, with “performed. After the OFT was completed, all rats were first trained to drink 10 g/L sucrose-containing water. That is, tap water was replaced with 10 g/L sucrose-containing water within the first 48 h, then the water and food were deprived for 20 h, and then 10 g/L sucrose-containing water was provided for drinking and the drinking amount within 24 h was calculated.” for “performed.”

[4] = system: ApoE-knockout mice AS model; test: Anti-AS effect: aortic plaque area in ApoE-knockout mice on high-fat diet; type: in vivo
Method: The mice were randomly divided into 6 groups, with 5 mice in each group. The groups were intraperitoneally injected respectively with a blank solvent, a blank solvent, 12 mg/kg compound I-1, and 40 mg/kg compound I-1 once every day for 8 weeks. After the experiment was completed, the animals were sacrificed and main arteries were collected. The main arterial vessels were directly observed and photographed under a microscope. […] The collected arterial vessels were subjected to lipid staining with ORO and then photographed under a microscope, and image analysis was performed.

[5] = system: ApoE-knockout mice AS model; test: Plasma lipid indexes in ApoE-knockout AS mice; type: in vivo; details: versus non-administration Control group
Method: The mice were randomly divided into 6 groups, with 5 mice in each group. The groups were intraperitoneally injected respectively with a blank solvent, a blank solvent, 12 mg/kg compound I-1, and 40 mg/kg compound I-1 once every day for 8 weeks. After the experiment was completed, the animals were sacrificed and main arteries were collected.

[6] = i.p. 3, 6, 12 mg/kg, two weeks after administration

| SMILES | inhibition at 1 µM [1] | inhibition at 10 µM [1] | IC50 [1] | further results |
| --- | --- | --- | --- | --- |
| O=C(NO)c1ccc2ncn(-c3ccc(OCc4ccc(Cl)c(C(F)(F)F)c4)cc3)c2c1 [Compound I-7] | – | – | 390 nM | – |
| O=C(NO)c1ccc2ncn(-c3ccc(OCc4cccc(C(F)(F)F)c4)cc3)c2c1 [Compound I-6] | – | – | 1240 nM | – |
| O=C(NO)c1ccc2ncn(-c3ccc(OCc4ccc(C(F)(F)F)cc4C(F)(F)F)cc3)c2c1 [Compound I-8] | – | – | 1160 nM | – |
| O=C(NO)c1ccc2ncn(CCCOCc3ccc(C(F)(F)F)cc3)c2c1 [Compound I-5] | – | – | 2780 nM | – |
| O=C(NO)c1ccc2ncn(-c3ccc(OCc4ccc(Cl)cc4)cc3)c2c1 [Compound I-1, 1-(4-((4-chlorobenzyl)oxy)phenyl)-N-hydroxy-1H-benzo[d]imidazole-6-carboxamide] | – | – | 470 nM | OFT behavioral indexes versus amitriptyline (6 mg/kg) ([2]; high-dose 12 mg/kg i.p.): comparable to that of rats in the amitriptyline control group; OFT frequency of grooming [2, 6]: significantly improved; OFT frequency of upright [2, 6]: significantly improved; OFT times passing the grid [2, 6]: significantly improved; OFT total time in center [2, 6]: significantly improved; SPT effect versus positive control amitriptyline (6 mg/kg) ([3]; high-dose 12 mg/kg i.p.): slightly lower than that of the positive control drug amitriptyline; SPT effect versus model group ([3]; high-dose 12 mg/kg i.p., p < 0.01): significantly different from that of the model group; SPT uptake capacity for sucrose-containing water ([3]; i.p., 10 g/L sucrose water, drinking amount within 24 h): significantly restored; Plaque area of AS (ORO lipid staining) ([4]; 12 mg/kg i.p. once daily for 8 weeks): significantly reduce; Plaque area of AS (ORO lipid staining) ([4]; 40 mg/kg i.p. once daily for 8 weeks): significantly reduce; Aortic arch plaque area (direct microscopy) ([4]; i.p. once daily for 8 weeks, different doses (12 and 40 mg/kg)): significantly reduced; HDL in plasma [5]: no impact; LDL level in plasma [5]: significantly increased; Total TG in plasma [5]: no impact; Total cholesterol in plasma [5]: no impact |
| O=C(NO)c1ccc2ncn(-c3ccc(OCc4ccc(C(F)(F)F)cc4)cc3)c2c1 [Compound I-3] | – | – | 3680 nM | – |

The next lines start with results.

| inhibition at 1 µM [1] | inhibition at 10 µM [1] | IC50 [1] | SMILES | further results |
| --- | --- | --- | --- | --- |
| 69% | 88% | – | COc1ccc(COc2ccc(-n3ccc4ccc(C(=O)NO)cc43)cc2)cc1 [II-2, 1-(4-((4-methoxybenzyl)oxy)phenyl)-N-hydroxy-1H-indole-6-carboxamide] | – |
| 8% | 83% | – | N#Cc1ccc(COc2ccc(-n3cnc4ccc(C(=O)NO)cc43)cc2)cc1 [Compound I-11] | – |
| 80% | 93% | – | O=C(NO)c1ccc2ncn(-c3ccc(OCc4cc(C(F)(F)F)cc(C(F)(F)F)c4)cc3)c2c1 [Compound I-9] | – |
| 14% | 22% | – | O=C(NO)c1ccc2ncn(-c3ccc(OCc4ccccn4)cc3)c2c1 [Compound I-13] | – |
| 74% | 91% | – | O=C(NO)c1ccc2ccn(-c3ccc(OCc4ccc(C(F)(F)F)cc4)cc3)c2c1 [II-1, 1-(4-((4-trifluoromethylbenzyl)oxy)phenyl)-N-hydroxy-1H-indole-6-carboxamide] | – |
| 20% | 50% | – | O=C(NO)c1ccc2ncn(-c3ccc(OCc4ccc(F)cc4)cc3)c2c1 [Compound I-10] | – |
| 24% | 76% | – | O=C(NO)c1ccc2ncn(-c3ccc(OCc4ccc(C(F)(F)F)cn4)cc3)c2c1 [Compound I-14] | – |
| 70% | 82% | – | COc1ccc(COc2ccc(-n3cnc4ccc(C(=O)NO)cc43)cc2)cc1 [Compound I-12] | – |
